The values that follow come from patent US20180104232A1, “METHODS FOR DETERMINING PROGNOSIS FOR BREAST CANCER PATIENTS” (The University of Chicago, priority 2015, published 2018).

The subject of one experiment is human TNBC BM1 cells. Nature of the experiment: Relative CCL5 mRNA in BM1 cells treated with JQ1. In kind it is cell-based. The following applies: 300 nM JQ1, GAPDH loading control. As for the experimental part: (§1) FIG. 21: Relative levels of HMGA2 (first bar of each set) and CCL5 (second bar of each set) are shown for the human triple-negative BM1 cell line (top) and the mouse basal-like breast cancer M6C cell line (bottom) treated with the bromodomain inhibitor JQ1, known to block HMGA2 activity. Relative levels of mRNA were calculated using the formula RQ=2-^˜˜CT with GAPDH as the loading control*0.05>p>0.01 ***0.001>p.
(§2) To overcome resistance to Maraviroc and increased CCL5 levels, the inventors are treating the tumor cells with JQ1, a bromodomain inhibitor which regulates HMGA2. HMGA2 is an upstream regulator of CCL5. Additionally, both genes expression levels are included in our prognostic signature. […] We plan to in the future test whether JQ1 in conjunction with Maraviroc are able to lead to a reduction in metastasis in a mouse model.

In experiment [1] the test system is mouse basal-like M6C cells. The experiment can be described thus: Relative CCL5 mRNA in M6C cells treated with JQ1. The class given is cell-based. The following applies: 300 nM JQ1, GAPDH loading control. As for the experimental part: as §1, §2
In another experiment the test system is tumors in nude mice. Nature of the experiment: Treatment of tumor-bearing nude mice with A23 and/or Maraviroc (tumor weight, growth, intravasation). In kind it is in vivo, mouse. Particulars: agent alone; nude mice treated for 21 days starting at day 3. From the text:
B) The corresponding growth curves for the treated mice.

The next experiment has as its system CCL5. The following applies: tumor cells isolated from treated mice. Here is the method: (§3) FIG. 20A-F: A) Final tumor weights shown for nude mice treated with the anti-Progranulin neutralizing antibody A23 alone or in combination with the CCR5 inhibitor Maraviroc for 21 days starting at day 3. B) The corresponding growth curves for the treated mice. Tumor volume is calculated as (π/6)*length2*width C) To measure the _rst step of metastasis we examine the relative number of tumor cells intravasating into the blood stream. This is calculated as the relative amount of human GAPDH compared to mouse Gapdh mRNA from cells isolated from blood after treatment. D) Tumor-associated macrophages were isolated from treated mice and qRT-PCR was performed to determine the relative amount of mRNA with Gapdh serving as the loading control; each set of four bars is data from the control, A23, Maraviroc, and A23+Maraviroc, respectively. E-F) Tumor cells were isolated from tumors stripped of mouse cells. RNA was collected and Relative CCL5 and Progranulin (GRN) were calculated with GAPDH as a loading control. *0.05>p>0.01 ** 0.01>p>0.001

The next experiment relates to CCL7. The following applies: TAMs isolated from treated mice. As for the experimental part: as §3

`Cc1sc2c(c1C)C(c1ccc(Cl)cc1)=N[C@@H](CC(=O)OC(C)(C)C)c1nnc(C)n1-2` [JQ1]: the CCL5 expression entry (in the experiment on human TNBC BM1 cells; in experiment [1]) was “significant reduction” throughout.

Regarding Maraviroc, in the experiment with tumors in nude mice, the “effectiveness of treatment in tumor-bearing mice” value is on record as “not effective”. The “CCL5 secreted by tumor cells in response to therapy” value with CCL5 is given as “more CCL5”. In addition, in the experiment on CCL7, the “CCL7 in the tumor-associated macrophages” value is given as “more CCL7”.
